Laboratory results taken from the supplement of paper PMC10307832.

Key:
Experiment in all cases: relative viability (nuclei count vs DMSO), 5 days (fraction); higher = more cells survive
Venetoclax + Alpelisib = compound: CC1(C)CCC(CN2CCN(c3ccc(C(=O)NS(=O)(=O)c4ccc(NCC5CCOCC5)c([N+](=O)[O-])c4)c(Oc4cnc5[nH]ccc5c4)c3)CC2)=C(c2ccc(Cl)cc2)C1 [Venetoclax] + Cc1nc(NC(=O)N2CCC[C@H]2C(N)=O)sc1-c1ccnc(C(C)(C)C(F)(F)F)c1 [Alpelisib] (partner 2 µM)
Outline: (§1)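 Five library-drug doses in √10 steps were combined with a fixed anchor-drug dose, or a single drug was given alone, by pin tool to lung cancer cell lines in 1536-well plates the day after seeding. Nuclei were stained and counted after 5 days. Relative viability is the nuclei count in treated wells over that in vehicle wells, taken as the median of duplicate plates.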

[1] = compound: Cn1cnc2c(F)c(Nc3ccc(Br)cc3Cl)c(C(=O)NOCCO)cc21 [Selumetinib] + CC(=O)c1c(C)c2cnc(Nc3ccc(N4CCNCC4)cn3)nc2n(C2CCCC2)c1=O [Palbociclib] (partner 0.5 µM)
Outline: as §1

Selumetinib + Bortezomib = compound: Cn1cnc2c(F)c(Nc3ccc(Br)cc3Cl)c(C(=O)NOCCO)cc21 [Selumetinib] + CC(C)C[C@H](NC(=O)[C@H](Cc1ccccc1)NC(=O)c1cnccn1)B(O)O [Bortezomib] (partner 0.002 µM)
Outline: as §1

Selumetinib + AZD7762 = compound: Cn1cnc2c(F)c(Nc3ccc(Br)cc3Cl)c(C(=O)NOCCO)cc21 [Selumetinib] + NC(=O)Nc1cc(-c2cccc(F)c2)sc1C(=O)N[C@H]1CCCNC1 [AZD7762] (partner 0.2 µM)
Outline: as §1

Row | Cell Line | relative viability (Venetoclax + Alpelisib; first compound 0.01 µM) | relative viability (Venetoclax + Alpelisib; first compound 0.03162 µM) | relative viability (Venetoclax + Alpelisib; first compound 0.1 µM) | relative viability (Venetoclax + Alpelisib; first compound 0.3162 µM) | relative viability (Venetoclax + Alpelisib; first compound 1 µM) | relative viability ([1]; first compound 0.02 µM) | relative viability ([1]; first compound 0.06325 µM) | relative viability ([1]; first compound 0.2 µM) | relative viability ([1]; first compound 0.6325 µM) | relative viability (Selumetinib + Bortezomib; first compound 0.02 µM) | relative viability (Selumetinib + Bortezomib; first compound 0.06325 µM) | relative viability (Selumetinib + Bortezomib; first compound 0.2 µM) | relative viability (Selumetinib + Bortezomib; first compound 0.6325 µM) | relative viability (Selumetinib + AZD7762; first compound 0.02 µM) | relative viability (Selumetinib + AZD7762; first compound 0.06325 µM) | relative viability (Selumetinib + AZD7762; first compound 0.2 µM) | relative viability (Selumetinib + AZD7762; first compound 0.6325 µM)
1 | NCI-H1437 | 0.985 | 0.989 | 1.05 | 0.938 | 0.926 | 0.319 | 0.292 | 0.258 | 0.224 | 0.486 | 0.378 | 0.316 | 0.276 | 1.03 | 0.941 | 0.834 | 0.603
2 | NCI-H3122 | 0.874 | 0.751 | 0.757 | 0.731 | 0.884 | 0.188 | 0.139 | 0.132 | 0.153 | 0.896 | 0.811 | 0.779 | 0.78 | 0.886 | 0.808 | 0.785 | 0.552
3 | NCI-H460 | 0.539 | 0.446 | 0.446 | 0.472 | 0.447 | 0.147 | 0.142 | 0.0907 | 0.0517 | 0.962 | 0.684 | 0.852 | 0.458 | 0.695 | 0.663 | 0.598 | 0.662
4 | PC-3 [JPC-3] | 0.917 | 1.03 | 1.01 | 0.967 | 1.01 | 0.484 | 0.566 | 0.515 | 0.571 | 0.822 | 0.813 | 0.669 | 0.551 | 0.656 | 0.676 | 0.57 | 0.678
5 | HCC-15 | 0.872 | 0.91 | 0.723 | 0.857 | 0.735 | 0.564 | 0.537 | 0.355 | 0.253 | 0.842 | 0.677 | 0.559 | 0.424 | 0.996 | 0.808 | 1.01 | 0.631
6 | NCI-H1975 | 0.673 | 0.703 | 0.609 | 0.628 | 0.543 | 0.517 | 0.509 | 0.467 | 0.388 | 0.324 | 0.282 | 0.262 | 0.221 | 0.69 | 0.599 | 0.662 | 0.527
7 | NCI-H727 | 0.553 | 0.608 | 0.525 | 0.558 | 0.571 | 0.473 | 0.517 | 0.489 | 0.423 | 0.58 | 0.351 | 0.359 | 0.337 | 0.455 | 0.428 | 0.322 | 0.427
8 | 201T | 0.96 | 1.01 | 1.07 | 0.972 | 1.03 | 0.357 | 0.352 | 0.314 | 0.329 | 1.11 | 1 | 1.01 | 0.994 | 0.602 | 0.615 | 0.554 | 0.6
9 | HCC-78 | 0.371 | 0.303 | 0.313 | 0.326 | 0.361 | 0.486 | 0.488 | 0.498 | 0.423 | 0.468 | 0.359 | 0.392 | 0.425 | 0.576 | 0.581 | 0.526 | 0.477
10 | NCI-H650 | 1.07 | 0.989 |  | 1.13 | 1.01 | 0.395 | 0.571 | 0.516 | 0.521 | 1.01 | 0.995 | 1.25 | 1.17 | 1.37 | 1.14 | 1.06 | 1.15
11 | HARA | 0.728 | 0.822 | 0.787 | 0.891 | 0.787 | 0.359 | 0.244 | 0.236 | 0.165 | 1.03 | 1.07 | 1.01 | 0.861 | 0.38 | 0.34 | 0.341 | 0.152
12 | NCI-H2087 | 1.16 | 1.11 | 0.808 | 1.22 | 0.664 | 0.197 | 0.168 | 0.144 | 0.0937 | 0.626 | 0.542 | 0.456 | 0.351 | 1.1 | 0.993 | 1.16 | 0.525
13 | NCI-H2405 | 0.833 | 0.751 |  | 0.82 | 0.705 | 0.485 | 0.434 | 0.395 | 0.344 | 0.971 | 0.928 | 0.858 | 0.744 | 0.729 | 0.492 | 0.561 | 0.466
14 | NCI-H647 | 0.703 | 1.05 |  | 1 | 1.01 | 0.339 | 0.353 | 0.354 | 0.364 | 0.96 | 0.946 | 0.901 | 0.73 | 0.466 | 0.441 | 0.366 | 0.271
15 | EKVX | 0.82 | 1 | 0.871 | 0.982 | 0.786 | 0.285 | 0.278 | 0.227 | 0.186 | 0.858 | 0.795 | 0.543 | 0.748 | 0.713 | 0.594 | 0.613 | 0.502
16 | H3255 | 0.702 | 0.671 | 0.686 | 0.891 | 0.686 | 0.318 | 0.353 | 0.339 | 0.339 | 0.82 | 0.801 | 0.761 | 0.962 | 0.827 | 0.945 | 0.821 | 0.935
